Tests used:
[1] = molecular target: Casein kinase I isoform alpha (Homo sapiens) (UniProt P48729); assay: Inhibition of human CK1a1 using KRRRAL[pS]VASLPGL as substrate at 1 uM in presence of 32P-ATP by Hotspot assay relative to control; values are per cent of control
[2] = molecular target: T1, Cytoplasmic tyrosine-protein kinase BMX (Homo sapiens) (UniProt P51813); assay: Inhibition of human BMX/ETK using poly[Glu:Tyr] (4:1) as substrate at 1 uM in presence of 32P-ATP by Hotspot assay relative to control; values are per cent of control
T1 sequence (whole entry): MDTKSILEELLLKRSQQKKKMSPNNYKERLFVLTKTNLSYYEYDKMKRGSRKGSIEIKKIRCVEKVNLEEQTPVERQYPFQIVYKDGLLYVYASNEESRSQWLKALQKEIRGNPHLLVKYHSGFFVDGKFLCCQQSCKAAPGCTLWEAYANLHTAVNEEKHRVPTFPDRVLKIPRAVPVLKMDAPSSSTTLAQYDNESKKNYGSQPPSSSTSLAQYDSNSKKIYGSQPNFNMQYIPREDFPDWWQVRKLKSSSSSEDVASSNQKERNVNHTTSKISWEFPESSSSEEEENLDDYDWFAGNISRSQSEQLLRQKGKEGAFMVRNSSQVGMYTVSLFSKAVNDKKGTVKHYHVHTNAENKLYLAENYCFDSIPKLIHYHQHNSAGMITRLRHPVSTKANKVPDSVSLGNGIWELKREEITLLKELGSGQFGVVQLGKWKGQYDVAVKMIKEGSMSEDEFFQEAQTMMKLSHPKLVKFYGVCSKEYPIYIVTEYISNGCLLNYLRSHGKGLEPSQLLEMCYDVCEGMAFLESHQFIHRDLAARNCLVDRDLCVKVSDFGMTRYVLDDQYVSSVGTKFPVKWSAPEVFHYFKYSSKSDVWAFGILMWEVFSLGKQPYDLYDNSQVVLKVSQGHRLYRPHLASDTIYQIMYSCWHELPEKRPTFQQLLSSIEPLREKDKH

[3] = molecular target: Ribosomal protein S6 kinase beta-2 (Homo sapiens) (UniProt Q9UBS0); assay: Inhibition of human p70S6Kb/RPS6KB2 using KKRNRTLTK as substrate at 1 uM in presence of 32P-ATP by Hotspot assay relative to control; values are per cent of control
Homo sapiens [4] = species on record: Homo sapiens; assay: Inhibition of human TAOK2/TAO1 using myelin basic protein as substrate at 1 uM in presence of 32P-ATP by Hotspot assay relative to control; values are per cent of control
Homo sapiens [5] = species on record: Homo sapiens; assay: Inhibition of human PKA using LCGRTGRRNSI as substrate at 1 uM in presence of 32P-ATP by Hotspot assay relative to control; values are per cent of control
[6] = molecular target: RAC-alpha serine/threonine-protein kinase (Homo sapiens) (UniProt P31749); assay: Inhibition of human AKT1 using KGSGSGRPRTSSFAEG as substrate at 1 uM in presence of 32P-ATP by Hotspot assay relative to control; values are per cent of control
[7] = molecular target: Homeodomain-interacting protein kinase 2 (Homo sapiens) (UniProt Q9H2X6); assay: Inhibition of human HIPK2 using myelin basic protein as substrate at 1 uM in presence of 32P-ATP by Hotspot assay relative to control; values are per cent of control
[8] = molecular target: NT-3 growth factor receptor (Homo sapiens) (UniProt Q16288); assay: Inhibition of human TRKC using poly[Glu:Tyr] (4:1) as substrate at 1 uM in presence of 32P-ATP by Hotspot assay relative to control; values are per cent of control
[9] = molecular target: T2, Dual specificity tyrosine-phosphorylation-regulated kinase 2 (Homo sapiens) (UniProt Q92630); assay: Inhibition of human DYRK2 using RRRFRPASPLRGPPK as substrate at 1 uM in presence of 32P-ATP by Hotspot assay relative to control; values are per cent of control
T2 sequence (whole entry): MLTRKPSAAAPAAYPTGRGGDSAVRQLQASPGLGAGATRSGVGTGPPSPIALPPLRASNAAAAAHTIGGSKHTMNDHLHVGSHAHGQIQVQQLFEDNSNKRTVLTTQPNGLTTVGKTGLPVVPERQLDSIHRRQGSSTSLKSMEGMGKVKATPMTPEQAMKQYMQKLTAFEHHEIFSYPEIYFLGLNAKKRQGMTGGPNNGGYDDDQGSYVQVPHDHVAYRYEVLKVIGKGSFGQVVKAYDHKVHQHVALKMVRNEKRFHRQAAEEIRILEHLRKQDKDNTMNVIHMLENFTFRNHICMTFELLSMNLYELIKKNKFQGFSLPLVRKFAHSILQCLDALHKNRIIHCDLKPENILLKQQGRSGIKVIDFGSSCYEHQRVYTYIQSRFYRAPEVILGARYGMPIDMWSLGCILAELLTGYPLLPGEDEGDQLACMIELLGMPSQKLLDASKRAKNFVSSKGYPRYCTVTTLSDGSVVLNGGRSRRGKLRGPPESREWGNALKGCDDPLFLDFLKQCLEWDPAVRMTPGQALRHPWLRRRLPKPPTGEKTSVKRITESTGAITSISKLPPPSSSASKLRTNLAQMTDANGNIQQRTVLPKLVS

[10] = molecular target: Tyrosine-protein kinase Blk (Homo sapiens) (UniProt P51451); assay: Inhibition of human BLK using poly[Glu:Tyr] (4:1) as substrate at 1 uM in presence of 32P-ATP by Hotspot assay relative to control; values are per cent of control
Tyrosine-protein kinase Blk (Homo sapiens), sequence (P51451 2-505 limits assumed): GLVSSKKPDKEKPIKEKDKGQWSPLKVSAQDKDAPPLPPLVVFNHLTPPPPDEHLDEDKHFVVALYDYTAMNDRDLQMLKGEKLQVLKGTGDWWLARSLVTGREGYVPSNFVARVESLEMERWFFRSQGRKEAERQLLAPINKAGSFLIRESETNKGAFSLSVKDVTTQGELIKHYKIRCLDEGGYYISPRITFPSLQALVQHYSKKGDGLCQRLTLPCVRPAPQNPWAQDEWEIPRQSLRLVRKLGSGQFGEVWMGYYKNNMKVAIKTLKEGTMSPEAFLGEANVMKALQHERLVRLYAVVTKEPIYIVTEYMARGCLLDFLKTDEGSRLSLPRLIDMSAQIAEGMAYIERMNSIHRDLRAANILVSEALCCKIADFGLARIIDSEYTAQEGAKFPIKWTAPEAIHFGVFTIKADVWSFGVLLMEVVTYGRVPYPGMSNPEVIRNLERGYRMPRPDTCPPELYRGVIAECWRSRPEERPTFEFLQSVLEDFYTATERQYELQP

Ribosomal protein S6 kinase beta-2 (Homo sapiens), sequence (Q9UBS0 whole entry): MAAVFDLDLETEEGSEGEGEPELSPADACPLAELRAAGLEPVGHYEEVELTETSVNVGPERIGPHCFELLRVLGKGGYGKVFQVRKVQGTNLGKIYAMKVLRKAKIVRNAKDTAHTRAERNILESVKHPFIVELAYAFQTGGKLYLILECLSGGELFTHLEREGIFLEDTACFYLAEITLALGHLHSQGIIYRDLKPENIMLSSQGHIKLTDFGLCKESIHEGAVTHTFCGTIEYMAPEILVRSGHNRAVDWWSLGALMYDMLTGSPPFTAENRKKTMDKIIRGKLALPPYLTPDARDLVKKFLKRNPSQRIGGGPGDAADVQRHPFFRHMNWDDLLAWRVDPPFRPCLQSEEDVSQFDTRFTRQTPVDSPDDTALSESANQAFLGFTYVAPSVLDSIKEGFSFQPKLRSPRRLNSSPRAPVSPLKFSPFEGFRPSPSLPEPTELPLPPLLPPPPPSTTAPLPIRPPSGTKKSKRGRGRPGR
RAC-alpha serine/threonine-protein kinase (Homo sapiens), sequence (P31749 whole entry): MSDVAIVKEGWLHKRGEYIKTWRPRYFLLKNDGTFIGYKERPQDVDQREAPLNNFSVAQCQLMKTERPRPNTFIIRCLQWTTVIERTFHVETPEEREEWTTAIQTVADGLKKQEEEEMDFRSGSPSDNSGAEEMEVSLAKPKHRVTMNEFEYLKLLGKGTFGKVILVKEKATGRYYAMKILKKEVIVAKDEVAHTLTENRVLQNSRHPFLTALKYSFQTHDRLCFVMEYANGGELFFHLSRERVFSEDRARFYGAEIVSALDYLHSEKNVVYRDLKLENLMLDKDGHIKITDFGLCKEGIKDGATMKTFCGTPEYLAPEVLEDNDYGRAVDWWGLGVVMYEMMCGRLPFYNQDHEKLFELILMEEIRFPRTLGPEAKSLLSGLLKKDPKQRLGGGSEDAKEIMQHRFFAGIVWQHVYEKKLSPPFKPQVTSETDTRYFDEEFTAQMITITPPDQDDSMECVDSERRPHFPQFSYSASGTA
Homeodomain-interacting protein kinase 2 (Homo sapiens), sequence (Q9H2X6 whole entry, looked up): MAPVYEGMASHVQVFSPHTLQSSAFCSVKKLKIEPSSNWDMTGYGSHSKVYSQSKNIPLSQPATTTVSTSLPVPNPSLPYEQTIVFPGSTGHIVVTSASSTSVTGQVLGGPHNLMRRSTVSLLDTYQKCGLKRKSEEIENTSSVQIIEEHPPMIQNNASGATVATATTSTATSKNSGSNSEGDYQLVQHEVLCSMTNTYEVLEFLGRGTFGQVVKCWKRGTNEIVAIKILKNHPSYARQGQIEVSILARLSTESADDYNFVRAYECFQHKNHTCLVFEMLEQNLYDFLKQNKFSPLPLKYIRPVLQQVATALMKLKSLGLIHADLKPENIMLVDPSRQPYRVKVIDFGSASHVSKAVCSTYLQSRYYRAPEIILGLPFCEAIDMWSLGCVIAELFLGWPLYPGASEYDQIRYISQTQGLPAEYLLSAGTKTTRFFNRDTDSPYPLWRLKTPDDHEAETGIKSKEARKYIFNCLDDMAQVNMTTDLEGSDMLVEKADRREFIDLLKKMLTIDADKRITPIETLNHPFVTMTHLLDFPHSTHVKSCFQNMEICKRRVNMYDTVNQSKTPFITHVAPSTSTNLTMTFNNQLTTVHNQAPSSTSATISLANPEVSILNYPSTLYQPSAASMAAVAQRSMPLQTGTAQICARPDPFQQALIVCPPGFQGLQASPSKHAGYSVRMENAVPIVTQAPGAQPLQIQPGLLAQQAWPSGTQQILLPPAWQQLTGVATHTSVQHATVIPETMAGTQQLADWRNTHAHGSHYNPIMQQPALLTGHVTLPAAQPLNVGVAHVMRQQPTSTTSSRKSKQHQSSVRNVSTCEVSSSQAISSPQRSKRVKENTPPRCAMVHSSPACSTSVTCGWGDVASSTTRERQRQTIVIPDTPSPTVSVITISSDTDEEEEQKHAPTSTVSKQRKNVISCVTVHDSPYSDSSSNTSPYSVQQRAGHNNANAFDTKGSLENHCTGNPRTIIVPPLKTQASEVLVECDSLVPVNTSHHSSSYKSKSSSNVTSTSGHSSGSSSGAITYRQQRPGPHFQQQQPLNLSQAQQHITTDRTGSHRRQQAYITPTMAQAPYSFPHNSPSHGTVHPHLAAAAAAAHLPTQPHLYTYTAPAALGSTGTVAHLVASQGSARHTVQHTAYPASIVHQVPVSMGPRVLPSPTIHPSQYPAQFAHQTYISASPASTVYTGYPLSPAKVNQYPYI
NT-3 growth factor receptor (Homo sapiens), sequence (Q16288 32-839 limits assumed): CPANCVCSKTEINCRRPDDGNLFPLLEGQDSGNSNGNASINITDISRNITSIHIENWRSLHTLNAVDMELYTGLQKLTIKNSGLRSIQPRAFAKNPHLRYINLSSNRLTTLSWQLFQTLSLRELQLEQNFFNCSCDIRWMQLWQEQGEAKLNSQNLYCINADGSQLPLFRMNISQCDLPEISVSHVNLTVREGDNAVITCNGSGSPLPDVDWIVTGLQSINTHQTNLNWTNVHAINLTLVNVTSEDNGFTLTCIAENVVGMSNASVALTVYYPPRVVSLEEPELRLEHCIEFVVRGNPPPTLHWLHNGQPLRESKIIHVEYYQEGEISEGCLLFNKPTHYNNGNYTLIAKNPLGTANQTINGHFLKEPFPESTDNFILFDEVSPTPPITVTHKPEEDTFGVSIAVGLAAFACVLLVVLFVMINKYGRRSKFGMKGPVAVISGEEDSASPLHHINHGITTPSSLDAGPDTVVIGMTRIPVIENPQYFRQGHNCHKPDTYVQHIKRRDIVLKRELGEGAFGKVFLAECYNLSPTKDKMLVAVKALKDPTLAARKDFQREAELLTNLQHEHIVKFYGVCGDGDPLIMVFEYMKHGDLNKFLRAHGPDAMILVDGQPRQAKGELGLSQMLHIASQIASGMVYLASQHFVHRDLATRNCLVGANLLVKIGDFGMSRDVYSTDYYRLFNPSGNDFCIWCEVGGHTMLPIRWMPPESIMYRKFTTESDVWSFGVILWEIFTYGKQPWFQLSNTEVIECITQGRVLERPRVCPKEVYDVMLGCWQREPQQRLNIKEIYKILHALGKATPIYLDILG
Casein kinase I isoform alpha (Homo sapiens), sequence (P48729 2-337 limits assumed): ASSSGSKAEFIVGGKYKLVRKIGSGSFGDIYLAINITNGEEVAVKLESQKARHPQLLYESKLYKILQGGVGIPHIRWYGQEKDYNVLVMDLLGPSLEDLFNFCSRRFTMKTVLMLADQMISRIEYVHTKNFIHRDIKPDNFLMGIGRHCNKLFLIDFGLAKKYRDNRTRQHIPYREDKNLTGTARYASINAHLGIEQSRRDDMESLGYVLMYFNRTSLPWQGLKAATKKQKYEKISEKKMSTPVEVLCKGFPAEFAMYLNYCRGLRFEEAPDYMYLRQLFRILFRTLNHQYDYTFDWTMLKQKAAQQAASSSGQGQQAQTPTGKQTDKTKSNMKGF

## CC(C)S(=O)(=O)c1ccc2nccc(Nc3ccc4scnc4c3)c2c1
[1]
  residual activity: 105%
[2]
  residual activity: 69.9%
[3]
  residual activity: 92.8%
Homo sapiens [4]
  residual activity: 93.4%
Homo sapiens [5]
  residual activity: 97.7%
[6]
  residual activity: 97.6%
[7]
  residual activity: 101%
[8]
  residual activity: 87.2%
[9]
  residual activity: 101%
[10]
  residual activity: 62.8%

## Cc1cc(-c2cnc(N)c3c(-c4ccc5scnc5c4)csc23)n(C)n1
[1]
  residual activity: 88.4%
[2]
  residual activity: 91.1%
[3]
  residual activity: 95.1%
Homo sapiens [4]
  residual activity: 97.1%
Homo sapiens [5]
  residual activity: 94.9%
[6]
  residual activity: 98.9%
[7]
  residual activity: 95.9%
[8]
  residual activity: 95.3%
[9]
  residual activity: 78.5%
[10]
  residual activity: 39.3%

## CNC(=O)c1ccc2c(c1)ncn2-c1ccc(CC(=O)OC(C)(C)C)cc1
[1]
  residual activity: 98.5%
[2]
  residual activity: 83.5%
[3]
  residual activity: 92.3%
Homo sapiens [4]
  residual activity: 102%
Homo sapiens [5]
  residual activity: 101%
[6]
  residual activity: 91.3%
[7]
  residual activity: 88.1%
[8]
  residual activity: 98%
[9]
  residual activity: 96.1%
[10]
  residual activity: 73.9%

— ChEMBL document CHEMBL5649166, “RIP3 induces apoptosis independent of pronecrotic kinase activity” (Mol Cell, 2014)
